ChEMBL document CHEMBL5352421, “Identification of novel piperazine-tethered phthalazines as selective CDK1 inhibitors endowed with in vitro anticancer activity toward the pancreatic cancer” (Eur J Med Chem, 2022)

What was measured:
[1] = test system: SK-MEL-1; test: Antiproliferative activity against human SK-MEL-1 cells assessed as growth inhibition incubated at 10 uM for 24 hrs by MTT assay relative to control; assay type: functional; conditions: read-out: GI
[2] = target: Cyclin-dependent kinase 1 (Homo sapiens, UniProt P06493); test: Inhibition of CDK1 (unknown origin) by FRET assay
[3] = Antiproliferative activity against human PL45 cells assessed as growth inhibition incubated at 10 uM for 24 hrs by MTT assay relative to control; assay type: functional; conditions: read-out: GI
[4] = Antiproliferative activity against human MDA-PATC53 cells assessed as growth inhibition incubated at 10 uM for 24 hrs by MTT assay relative to control; assay type: functional; conditions: read-out: GI
[5] = target: T1, Tyrosine-protein kinase receptor UFO (Homo sapiens, UniProt P30530); test: Inhibition of AXL (unknown origin) by FRET assay
T1 sequence (P30530 whole entry): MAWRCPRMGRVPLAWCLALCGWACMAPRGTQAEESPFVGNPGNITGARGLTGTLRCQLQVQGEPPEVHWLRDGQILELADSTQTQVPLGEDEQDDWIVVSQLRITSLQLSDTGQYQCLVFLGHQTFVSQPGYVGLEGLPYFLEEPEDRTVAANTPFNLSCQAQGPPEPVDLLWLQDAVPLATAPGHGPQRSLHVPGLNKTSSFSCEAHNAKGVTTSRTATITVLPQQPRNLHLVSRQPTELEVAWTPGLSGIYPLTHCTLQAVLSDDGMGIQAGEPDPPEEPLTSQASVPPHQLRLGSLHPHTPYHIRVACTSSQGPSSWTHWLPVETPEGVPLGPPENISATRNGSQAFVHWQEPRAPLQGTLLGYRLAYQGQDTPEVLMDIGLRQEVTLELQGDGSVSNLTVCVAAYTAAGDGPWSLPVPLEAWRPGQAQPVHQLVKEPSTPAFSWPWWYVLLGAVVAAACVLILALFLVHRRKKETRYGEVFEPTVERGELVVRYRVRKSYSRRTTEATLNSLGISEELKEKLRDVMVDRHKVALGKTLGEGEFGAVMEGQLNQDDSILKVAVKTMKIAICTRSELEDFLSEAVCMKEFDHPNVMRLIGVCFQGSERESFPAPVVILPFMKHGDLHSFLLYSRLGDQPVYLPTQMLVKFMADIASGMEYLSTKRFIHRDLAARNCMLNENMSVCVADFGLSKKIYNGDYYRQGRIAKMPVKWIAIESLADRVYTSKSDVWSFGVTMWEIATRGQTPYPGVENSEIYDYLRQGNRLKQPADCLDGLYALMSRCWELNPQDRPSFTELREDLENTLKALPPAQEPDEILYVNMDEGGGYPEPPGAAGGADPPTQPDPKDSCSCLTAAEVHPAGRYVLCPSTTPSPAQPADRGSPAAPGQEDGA

[6] = test system: G-361; test: Antiproliferative activity against human G-361 cells assessed as growth inhibition incubated at 10 uM for 24 hrs by MTT assay relative to control; assay type: functional; conditions: read-out: GI
[7] = target: Cyclin-dependent kinase 5 (Homo sapiens, UniProt Q00535); test: Inhibition of CDK5 (unknown origin) by FRET assay
[8] = test system: BT-549; test: Antiproliferative activity against human BT-549 cells assessed as growth inhibition incubated at 10 uM for 24 hrs by MTT assay relative to control; assay type: functional; conditions: read-out: GI
[9] = test system: A-375; test: Antiproliferative activity against human A-375 cells assessed as growth inhibition incubated at 10 uM for 24 hrs by MTT assay relative to control; assay type: functional; conditions: read-out: GI
[10] = test system: KG-1; test: Antiproliferative activity against human KG-1 cells assessed as growth inhibition incubated at 10 uM for 24 hrs by MTT assay relative to control; assay type: functional; conditions: read-out: GI
[11] = target: Protein-tyrosine kinase 2-beta (Homo sapiens, UniProt Q14289); test: Inhibition of PTK2B (unknown origin) by FRET assay
[12] = test system: MOLT-4; test: Antiproliferative activity against human MOLT-4 cells assessed as growth inhibition incubated at 10 uM for 24 hrs by MTT assay relative to control; assay type: functional; conditions: read-out: GI
[13] = target: Tyrosine-protein kinase JAK1 (Homo sapiens, UniProt P23458); test: Inhibition of JAK1 (unknown origin) by FRET assay
[14] = Antiproliferative activity against human MDA-PATC53 cells assessed as growth inhibition incubated for 24 hrs by MTT assay; assay type: functional, cell-based; conditions: MDA-PATC53, 24 h
[15] = Antiproliferative activity against human PL45 cells assessed as growth inhibition incubated for 24 hrs by MTT assay; assay type: functional, cell-based; conditions: PL45, 24 h
[16] = test system: T84; test: Antiproliferative activity against human T84 cells assessed as growth inhibition incubated at 10 uM for 24 hrs by MTT assay relative to control; assay type: functional; conditions: read-out: GI
[17] = target: Cyclin-dependent kinase 2 (Homo sapiens, UniProt P24941); test: Inhibition of CDK2 (unknown origin) by FRET assay
[18] = Selectivity index, ratio of IC50 for CDK2 (unknown origin) to CDK1 (unknown origin)
[19] = test system: HT-29; test: Antiproliferative activity against human HT-29 cells assessed as growth inhibition incubated at 10 uM for 24 hrs by MTT assay relative to control; assay type: functional; conditions: read-out: GI
[20] = target: Insulin-like growth factor 1 receptor (Homo sapiens, UniProt P08069); test: Inhibition of IGF1R (unknown origin) by FRET assay
[21] = target: Serine/threonine-protein kinase B-raf (Homo sapiens, UniProt P15056); test: Inhibition of BRAF (unknown origin) by FRET assay
[22] = Selectivity index, ratio of IC50 for CDK5 (unknown origin) to CDK1 (unknown origin)
[23] = test system: MCF7; test: Antiproliferative activity against human MCF7 cells assessed as growth inhibition incubated at 10 uM for 24 hrs by MTT assay relative to control; assay type: functional; conditions: read-out: GI
[24] = target: Fibroblast growth factor receptor (Homo sapiens, UniProt P22607+P11362+P22455+P21802); test: Inhibition of FGFR (unknown origin) by FRET assay; assay type: protein assay

Chain of Serine/threonine-protein kinase B-raf (P15056 whole entry): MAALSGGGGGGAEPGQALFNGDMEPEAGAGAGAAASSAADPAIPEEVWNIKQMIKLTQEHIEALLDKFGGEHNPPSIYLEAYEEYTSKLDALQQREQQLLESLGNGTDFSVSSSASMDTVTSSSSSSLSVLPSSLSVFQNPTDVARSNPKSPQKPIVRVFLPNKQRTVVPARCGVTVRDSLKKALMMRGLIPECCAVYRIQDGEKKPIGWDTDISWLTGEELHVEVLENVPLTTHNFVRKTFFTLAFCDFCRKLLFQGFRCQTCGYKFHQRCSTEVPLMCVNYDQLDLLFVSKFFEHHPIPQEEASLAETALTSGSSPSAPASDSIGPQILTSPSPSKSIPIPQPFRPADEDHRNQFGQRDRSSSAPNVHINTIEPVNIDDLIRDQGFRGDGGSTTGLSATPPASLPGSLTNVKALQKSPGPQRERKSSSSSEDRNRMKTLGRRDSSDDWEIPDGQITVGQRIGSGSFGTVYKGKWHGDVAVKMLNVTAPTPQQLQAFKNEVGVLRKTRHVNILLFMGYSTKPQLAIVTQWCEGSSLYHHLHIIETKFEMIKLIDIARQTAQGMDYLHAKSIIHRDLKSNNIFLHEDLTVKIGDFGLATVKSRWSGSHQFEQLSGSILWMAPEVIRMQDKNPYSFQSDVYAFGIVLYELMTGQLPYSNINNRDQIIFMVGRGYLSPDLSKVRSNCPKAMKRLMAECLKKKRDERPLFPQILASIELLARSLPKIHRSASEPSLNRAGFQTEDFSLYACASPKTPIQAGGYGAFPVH
Chain of Insulin-like growth factor 1 receptor (P08069 31-736 limits assumed): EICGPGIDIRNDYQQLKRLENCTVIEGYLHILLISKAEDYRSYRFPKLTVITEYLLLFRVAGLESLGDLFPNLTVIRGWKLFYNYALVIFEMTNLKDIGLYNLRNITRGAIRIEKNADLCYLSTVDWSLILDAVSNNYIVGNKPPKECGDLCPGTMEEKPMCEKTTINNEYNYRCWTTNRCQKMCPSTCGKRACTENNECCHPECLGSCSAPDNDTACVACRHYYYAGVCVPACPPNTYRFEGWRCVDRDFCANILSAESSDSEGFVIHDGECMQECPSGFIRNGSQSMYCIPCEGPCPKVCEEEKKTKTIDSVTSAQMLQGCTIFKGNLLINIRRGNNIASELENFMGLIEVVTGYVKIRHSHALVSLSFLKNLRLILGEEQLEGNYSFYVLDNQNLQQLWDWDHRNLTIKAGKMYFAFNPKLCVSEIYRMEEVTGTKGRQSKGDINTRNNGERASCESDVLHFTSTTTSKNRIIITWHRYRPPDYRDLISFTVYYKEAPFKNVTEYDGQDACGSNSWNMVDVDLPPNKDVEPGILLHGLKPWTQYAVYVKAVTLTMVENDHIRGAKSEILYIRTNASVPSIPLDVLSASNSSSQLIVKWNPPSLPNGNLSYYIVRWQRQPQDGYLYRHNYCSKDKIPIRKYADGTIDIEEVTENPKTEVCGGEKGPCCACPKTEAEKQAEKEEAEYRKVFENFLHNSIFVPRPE
Chain of Insulin-like growth factor 1 receptor (P08069 741-1367 limits assumed): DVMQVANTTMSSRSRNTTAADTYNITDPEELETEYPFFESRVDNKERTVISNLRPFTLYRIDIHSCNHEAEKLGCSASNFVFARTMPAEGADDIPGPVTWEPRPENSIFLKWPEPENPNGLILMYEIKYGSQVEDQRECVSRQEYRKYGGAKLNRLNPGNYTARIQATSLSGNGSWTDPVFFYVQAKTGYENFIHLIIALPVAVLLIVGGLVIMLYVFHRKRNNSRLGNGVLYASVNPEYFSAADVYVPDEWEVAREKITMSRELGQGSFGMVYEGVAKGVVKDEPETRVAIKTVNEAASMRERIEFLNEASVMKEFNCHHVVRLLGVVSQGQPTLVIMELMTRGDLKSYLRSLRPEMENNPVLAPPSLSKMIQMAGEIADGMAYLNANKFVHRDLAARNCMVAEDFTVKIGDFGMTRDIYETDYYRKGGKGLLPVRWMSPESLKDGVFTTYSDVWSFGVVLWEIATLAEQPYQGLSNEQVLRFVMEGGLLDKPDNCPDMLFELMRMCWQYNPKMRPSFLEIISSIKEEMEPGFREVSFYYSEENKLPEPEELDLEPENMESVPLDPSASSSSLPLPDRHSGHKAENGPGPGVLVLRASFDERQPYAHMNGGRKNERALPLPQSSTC
Chain of Cyclin-dependent kinase 5 (Q00535 whole entry): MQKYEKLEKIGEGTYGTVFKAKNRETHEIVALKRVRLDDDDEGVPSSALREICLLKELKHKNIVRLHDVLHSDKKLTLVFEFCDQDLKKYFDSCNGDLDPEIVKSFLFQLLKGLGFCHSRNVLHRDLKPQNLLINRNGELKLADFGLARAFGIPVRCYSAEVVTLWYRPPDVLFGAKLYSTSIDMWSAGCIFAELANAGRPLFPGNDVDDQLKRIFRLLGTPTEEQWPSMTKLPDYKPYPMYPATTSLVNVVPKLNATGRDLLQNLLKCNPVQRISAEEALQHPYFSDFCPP
Chain of Cyclin-dependent kinase 1 (P06493 whole entry): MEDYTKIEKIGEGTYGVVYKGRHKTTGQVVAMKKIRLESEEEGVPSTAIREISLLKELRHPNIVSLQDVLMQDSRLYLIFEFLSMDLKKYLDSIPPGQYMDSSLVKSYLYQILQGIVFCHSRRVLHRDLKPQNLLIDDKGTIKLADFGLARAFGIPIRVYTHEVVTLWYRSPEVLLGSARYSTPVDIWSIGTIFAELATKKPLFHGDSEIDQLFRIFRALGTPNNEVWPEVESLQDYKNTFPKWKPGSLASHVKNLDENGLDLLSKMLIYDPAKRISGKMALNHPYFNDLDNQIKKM
Chain of Tyrosine-protein kinase JAK1 (P23458 whole entry): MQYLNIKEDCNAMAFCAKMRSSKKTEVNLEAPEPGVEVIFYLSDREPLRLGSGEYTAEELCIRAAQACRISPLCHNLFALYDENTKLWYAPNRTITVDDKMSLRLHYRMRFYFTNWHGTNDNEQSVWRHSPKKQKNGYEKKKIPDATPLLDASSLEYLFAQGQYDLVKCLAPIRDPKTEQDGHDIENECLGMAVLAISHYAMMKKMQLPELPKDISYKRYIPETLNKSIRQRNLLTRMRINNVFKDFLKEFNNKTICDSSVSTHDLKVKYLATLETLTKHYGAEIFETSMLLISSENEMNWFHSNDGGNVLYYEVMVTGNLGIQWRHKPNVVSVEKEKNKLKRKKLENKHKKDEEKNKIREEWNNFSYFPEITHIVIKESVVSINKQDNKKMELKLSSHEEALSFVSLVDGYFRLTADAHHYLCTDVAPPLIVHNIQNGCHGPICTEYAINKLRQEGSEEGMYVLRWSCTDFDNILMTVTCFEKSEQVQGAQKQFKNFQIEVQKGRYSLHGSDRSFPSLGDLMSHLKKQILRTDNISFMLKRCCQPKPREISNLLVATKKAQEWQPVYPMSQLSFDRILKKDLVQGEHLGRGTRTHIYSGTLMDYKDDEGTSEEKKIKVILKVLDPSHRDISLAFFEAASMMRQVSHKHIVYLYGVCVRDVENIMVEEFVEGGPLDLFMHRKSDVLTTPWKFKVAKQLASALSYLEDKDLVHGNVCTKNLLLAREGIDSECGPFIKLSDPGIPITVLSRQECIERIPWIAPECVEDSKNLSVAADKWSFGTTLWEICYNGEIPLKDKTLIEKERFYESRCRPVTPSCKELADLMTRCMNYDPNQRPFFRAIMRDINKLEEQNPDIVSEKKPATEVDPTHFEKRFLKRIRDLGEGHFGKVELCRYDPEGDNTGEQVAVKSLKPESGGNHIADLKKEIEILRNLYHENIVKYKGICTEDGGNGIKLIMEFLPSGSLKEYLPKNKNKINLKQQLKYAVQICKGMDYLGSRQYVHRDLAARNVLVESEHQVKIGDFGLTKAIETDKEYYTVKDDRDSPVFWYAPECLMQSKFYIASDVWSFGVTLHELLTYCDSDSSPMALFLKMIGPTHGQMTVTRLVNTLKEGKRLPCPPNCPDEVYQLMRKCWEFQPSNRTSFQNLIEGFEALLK
Chain of Protein-tyrosine kinase 2-beta (Q14289 whole entry): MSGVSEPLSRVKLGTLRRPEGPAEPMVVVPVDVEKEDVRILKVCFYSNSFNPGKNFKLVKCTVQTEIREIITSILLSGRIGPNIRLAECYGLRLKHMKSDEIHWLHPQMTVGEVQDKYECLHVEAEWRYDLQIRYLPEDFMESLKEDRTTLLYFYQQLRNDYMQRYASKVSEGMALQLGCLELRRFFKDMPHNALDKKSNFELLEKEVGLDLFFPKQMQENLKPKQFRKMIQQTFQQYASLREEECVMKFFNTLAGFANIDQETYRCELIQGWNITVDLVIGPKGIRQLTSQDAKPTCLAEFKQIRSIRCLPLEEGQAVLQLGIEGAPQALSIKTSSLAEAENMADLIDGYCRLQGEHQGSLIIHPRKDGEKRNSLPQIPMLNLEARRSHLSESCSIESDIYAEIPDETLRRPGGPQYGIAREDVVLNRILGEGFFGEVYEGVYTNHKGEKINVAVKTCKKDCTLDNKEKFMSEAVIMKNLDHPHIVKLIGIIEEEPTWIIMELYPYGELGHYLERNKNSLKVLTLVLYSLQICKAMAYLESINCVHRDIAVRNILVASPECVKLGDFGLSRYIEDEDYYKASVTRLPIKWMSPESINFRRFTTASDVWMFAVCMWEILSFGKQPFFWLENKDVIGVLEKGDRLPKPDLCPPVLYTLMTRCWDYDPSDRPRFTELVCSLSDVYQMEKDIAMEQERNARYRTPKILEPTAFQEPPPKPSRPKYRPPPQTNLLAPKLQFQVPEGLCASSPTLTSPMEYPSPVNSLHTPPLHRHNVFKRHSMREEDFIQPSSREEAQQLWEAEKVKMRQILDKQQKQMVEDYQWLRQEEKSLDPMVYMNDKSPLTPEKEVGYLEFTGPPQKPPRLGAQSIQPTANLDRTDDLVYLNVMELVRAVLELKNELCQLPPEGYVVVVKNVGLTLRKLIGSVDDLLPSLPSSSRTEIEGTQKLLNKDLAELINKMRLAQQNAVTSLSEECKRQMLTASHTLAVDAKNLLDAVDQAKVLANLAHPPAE

SMILES	inhibition of growth at 10 µM [1] [%]	IC50 [2] [µM]	inhibition of growth at 10 µM [3] [%]	inhibition of growth at 10 µM [4] [%]	IC50 [5] [µM]	inhibition of growth at 10 µM [6] [%]	IC50 [7] [µM]	inhibition of growth at 10 µM [8] [%]	inhibition of growth at 10 µM [9] [%]	inhibition of growth at 10 µM [10] [%]	IC50 [11] [µM]	inhibition of growth at 10 µM [12] [%]	IC50 [13] [µM]	IC50 [14] [µM]	IC50 [15] [µM]	inhibition of growth at 10 µM [16] [%]	IC50 [17] [µM]	Ratio IC50 [18]	inhibition of growth at 10 µM [19] [%]	IC50 [20] [µM]	other results
COc1ccc(Cc2nnc(N3CCN(C(=S)Nc4ccc(OC)cc4)CC3)c3ccccc23)cc1	29.4	0.0844	83.5	66.4	8.41	58.3	0.452	23.7	47.9	23.9	3.66	31.4	1.54	6.65	2.1	19.3	0.396	4.7	51.7	5.65	IC50 [21]: 3.05 µM; Ratio IC50 [22]: 5.36; inhibition of growth at 10 µM [23]: 73.1%; IC50 [24]: 3.566 µM
COc1ccc(Cc2nnc(N3CCN(C(=O)c4ccccc4)CC3)c3ccccc23)cc1	2.02	0.091	44.6	70.4	5.49	8.66	0.391	19	10.3	12.1	4.33	9.47	5.6	4.07	12.9	18.3	0.455	5	5.09	1.53	IC50 [21]: 3.26 µM; Ratio IC50 [22]: 4.3; inhibition of growth at 10 µM [23]: 11.4%; IC50 [24]: 6.332 µM
O=C(c1ccccc1)N1CCN(c2nnc(Cc3ccccc3)c3ccccc23)CC1	54.9	0.0625	68.5	75.8	4.88	47.9	0.276	24.3	32.1	73.6	3.57	51.2	7.18	3.42	5.03	26.3	0.115	1.84	40.4	3.66	IC50 [21]: 7.82 µM; Ratio IC50 [22]: 4.41; inhibition of growth at 10 µM [23]: 38.4%; IC50 [24]: 5.254 µM
O=C(Nc1ccc(Cl)cc1)N1CCN(c2nnc(Cc3ccccc3)c3ccccc23)CC1	50.1	0.0584	81.8	67.4	8.75	47	0.826	23	66.3	57.9	1.33	33	4.55	5.3	2.21	29.4	0.103	1.76	81.2	3.15	IC50 [21]: 3.65 µM; Ratio IC50 [22]: 14.2; inhibition of growth at 10 µM [23]: 64.8%; IC50 [24]: 6.346 µM
COc1ccc(Cc2nnc(N3CCN(C(=S)Nc4ccc(Cl)cc4)CC3)c3ccccc23)cc1	64.7	0.0495	86.4	85.8	2.17	72.3	0.716	75.4	85.6	63.9	2.37	78.4	4.15	1.62	1.89	81.4	0.534	10.8	80.1	7.44	IC50 [21]: 2.47 µM; Ratio IC50 [22]: 14.5; inhibition of growth at 10 µM [23]: 71.9%; IC50 [24]: 4.354 µM
COc1ccc(NC(=S)N2CCN(c3nnc(Cc4ccccc4)c4ccccc34)CC2)cc1	6.64	0.126	49.6	49	4.42	24.6	0.498	8.65	11.2	1.36	3.64	14.2	2.54	10.2	12.5	9.67	0.308	2.43	21.9	8.63	IC50 [21]: 4.49 µM; Ratio IC50 [22]: 3.94; inhibition of growth at 10 µM [23]: 10.1%; IC50 [24]: 5.517 µM
COc1cccc(NC(=S)N2CCN(c3nnc(Cc4ccccc4)c4ccccc34)CC2)c1	49.3	0.0884	66	76.3	7.95	31.2	0.705	52.1	60.1	28.5	4.49	31.2	3.54	3.88	5.76	49.7	0.426	4.82	60.2	1.13	IC50 [21]: 3.88 µM; Ratio IC50 [22]: 7.98; inhibition of growth at 10 µM [23]: 34.2%; IC50 [24]: 3.853 µM
S=C(Nc1ccccc1)N1CCN(c2nnc(Cc3ccccc3)c3ccccc23)CC1	50.9	0.07	78.4	85.2	1.26	58.9	0.947	42.1	38.2	61.9	5.23	43	4.97	1.61	2.54	56	0.24	3.42	20.7	2.37	IC50 [21]: 8.75 µM; Ratio IC50 [22]: 13.5; inhibition of growth at 10 µM [23]: 64.6%; IC50 [24]: 2.507 µM
